Molecules are shown by their SMILES.

The source of these data is paper PMC4770715, “LIM kinase inhibitors disrupt mitotic microtubule organization and impair tumor cell proliferation” (Oncotarget, 2015).

Holding throughout (assay): biochemical
What all share (parameters): KINOMEscan active-site competition binding, percent of control (100 = no competition)
What all share (settings): competition binding, percent control

The target in assay [1] is ULK1 (Homo sapiens, UniProt O75385). The text has this: (§1) Given the potential for the use of LIMK inhibitors as cancer chemotherapeutics, a high-throughput drug discovery and medicinal chemistry program was undertaken. Details of the screening methodology and description of initial hit matter were described in [38]. […] Details of their chemical synthesis are described in Charles et al.. […] These and additional physiochemical parameters are in Supplemental Table 5. […] Kinases inhibited >25% to 50% have yellow circles, 51% to 75% have orange circles, and >76% have red circles. In each case, the size of the circle is proportional to percentage inhibition. LIMK1 and LIMK2 positions are indicated in blue. Illustration reproduced courtesy of Cell Signaling Technology, Inc. (www.cellsignal.com). B. CRT0105950 structure and kinome selectivity mapping as described above. C.

The target of assay [2] is AURKB (Homo sapiens, UniProt Q96GD4).
Excerpt: as §1

In assay [3] the target is T1, NIM1 (Homo sapiens, UniProt Q8IY84).
T1 construct: gene NIM1K
T1 sequence (Q8IY84 whole entry): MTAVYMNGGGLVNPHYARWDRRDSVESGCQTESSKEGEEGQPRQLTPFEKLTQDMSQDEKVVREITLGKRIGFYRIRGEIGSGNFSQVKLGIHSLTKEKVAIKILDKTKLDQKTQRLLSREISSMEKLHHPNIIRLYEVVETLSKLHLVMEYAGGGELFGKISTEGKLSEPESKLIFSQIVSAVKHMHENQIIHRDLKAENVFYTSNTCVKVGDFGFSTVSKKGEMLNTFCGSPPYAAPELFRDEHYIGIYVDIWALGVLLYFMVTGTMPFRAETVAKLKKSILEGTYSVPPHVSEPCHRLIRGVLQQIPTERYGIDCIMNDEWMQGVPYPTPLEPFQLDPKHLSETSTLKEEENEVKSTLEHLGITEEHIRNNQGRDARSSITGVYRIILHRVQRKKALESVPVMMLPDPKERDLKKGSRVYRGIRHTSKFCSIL
Excerpt: as §1

Assay [4] deals with T2, MEK5 (Homo sapiens, UniProt Q13163).
T2 construct: gene MAP2K5
T2 sequence (Q13163 whole entry): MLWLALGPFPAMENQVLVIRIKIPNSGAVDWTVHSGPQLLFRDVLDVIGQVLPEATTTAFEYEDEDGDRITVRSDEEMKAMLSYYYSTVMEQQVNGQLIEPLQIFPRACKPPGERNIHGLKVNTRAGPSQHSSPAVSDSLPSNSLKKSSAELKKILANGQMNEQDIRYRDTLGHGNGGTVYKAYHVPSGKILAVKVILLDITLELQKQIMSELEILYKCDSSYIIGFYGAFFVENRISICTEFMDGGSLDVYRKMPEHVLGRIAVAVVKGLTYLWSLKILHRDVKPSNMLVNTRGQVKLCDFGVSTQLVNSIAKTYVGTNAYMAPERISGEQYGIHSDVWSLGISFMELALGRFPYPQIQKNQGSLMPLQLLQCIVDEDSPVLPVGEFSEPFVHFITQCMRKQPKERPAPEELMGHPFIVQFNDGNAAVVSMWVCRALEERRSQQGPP
Excerpt: as §1

For assay [5], the target named is AURKC (Homo sapiens, UniProt Q9UQB9).
Sequence of AURKC (Q9UQB9 whole entry): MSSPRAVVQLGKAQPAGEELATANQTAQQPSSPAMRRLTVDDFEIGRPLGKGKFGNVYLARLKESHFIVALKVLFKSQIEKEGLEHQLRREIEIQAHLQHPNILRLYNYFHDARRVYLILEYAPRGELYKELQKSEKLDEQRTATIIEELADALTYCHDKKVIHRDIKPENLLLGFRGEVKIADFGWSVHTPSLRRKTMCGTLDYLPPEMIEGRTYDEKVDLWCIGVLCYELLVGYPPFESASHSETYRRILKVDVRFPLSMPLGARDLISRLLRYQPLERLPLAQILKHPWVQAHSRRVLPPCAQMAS
Excerpt: as §1

Assay [6] addresses CAMK1G (Homo sapiens, UniProt Q96NX5).
Excerpt: as §1

Assay [7] concerns the target FGFR1 (Homo sapiens, UniProt P11362).
Excerpt: as §1

The target in assay [8] is CDK7 (Homo sapiens, UniProt P50613).
Excerpt: as §1

The target of assay [9] is EPHB1 (Homo sapiens, UniProt P54762).
Sequence of EPHB1 (P54762 whole entry): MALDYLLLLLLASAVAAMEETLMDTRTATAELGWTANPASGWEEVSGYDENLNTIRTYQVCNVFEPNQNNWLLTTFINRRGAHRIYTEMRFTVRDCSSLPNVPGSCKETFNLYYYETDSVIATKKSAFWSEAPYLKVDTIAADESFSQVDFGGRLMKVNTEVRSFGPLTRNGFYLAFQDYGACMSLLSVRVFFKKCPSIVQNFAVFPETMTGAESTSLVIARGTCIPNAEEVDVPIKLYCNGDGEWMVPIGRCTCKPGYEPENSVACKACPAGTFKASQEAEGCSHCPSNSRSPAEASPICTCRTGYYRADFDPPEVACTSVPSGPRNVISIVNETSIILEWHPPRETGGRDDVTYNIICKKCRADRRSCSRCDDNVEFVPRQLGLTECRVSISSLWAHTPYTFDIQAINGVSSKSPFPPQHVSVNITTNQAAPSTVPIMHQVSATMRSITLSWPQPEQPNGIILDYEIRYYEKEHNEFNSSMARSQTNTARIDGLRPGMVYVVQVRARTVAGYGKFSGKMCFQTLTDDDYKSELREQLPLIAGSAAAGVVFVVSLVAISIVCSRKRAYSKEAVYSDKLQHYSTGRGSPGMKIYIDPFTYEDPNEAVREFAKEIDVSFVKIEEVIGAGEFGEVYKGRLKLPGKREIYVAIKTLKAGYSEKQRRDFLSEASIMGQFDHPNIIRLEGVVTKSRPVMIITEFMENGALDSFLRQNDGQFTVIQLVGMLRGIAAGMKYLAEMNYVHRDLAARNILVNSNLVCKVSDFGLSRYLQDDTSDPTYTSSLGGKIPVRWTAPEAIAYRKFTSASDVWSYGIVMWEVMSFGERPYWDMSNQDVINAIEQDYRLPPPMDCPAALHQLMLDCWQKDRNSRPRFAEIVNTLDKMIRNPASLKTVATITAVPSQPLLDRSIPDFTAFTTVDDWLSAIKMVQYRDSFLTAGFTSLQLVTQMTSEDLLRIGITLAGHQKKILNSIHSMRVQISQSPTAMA
Excerpt: as §1

In assay [10] the target is ACVR2B (Homo sapiens, UniProt Q13705).
Excerpt: as §1

Assay [11] deals with PAK4 (Homo sapiens, UniProt O96013).
Excerpt: as §1

For assay [12], the target named is EPHA7 (Homo sapiens, UniProt Q15375).
Excerpt: as §1

Assay [13] has as its target NEK1 (Homo sapiens, UniProt Q96PY6).
Excerpt: as §1

Assay [14] concerns the target T3, YES (Homo sapiens, UniProt P07947).
T3 construct: gene YES1
Excerpt: as §1

Assay [15] addresses EGFR(T790M) (Homo sapiens, UniProt P00533, T790M).
Excerpt: as §1

For assay [16], the target named is NEK11 (Homo sapiens, UniProt Q8NG66).
Sequence of NEK11 (Q8NG66 whole entry): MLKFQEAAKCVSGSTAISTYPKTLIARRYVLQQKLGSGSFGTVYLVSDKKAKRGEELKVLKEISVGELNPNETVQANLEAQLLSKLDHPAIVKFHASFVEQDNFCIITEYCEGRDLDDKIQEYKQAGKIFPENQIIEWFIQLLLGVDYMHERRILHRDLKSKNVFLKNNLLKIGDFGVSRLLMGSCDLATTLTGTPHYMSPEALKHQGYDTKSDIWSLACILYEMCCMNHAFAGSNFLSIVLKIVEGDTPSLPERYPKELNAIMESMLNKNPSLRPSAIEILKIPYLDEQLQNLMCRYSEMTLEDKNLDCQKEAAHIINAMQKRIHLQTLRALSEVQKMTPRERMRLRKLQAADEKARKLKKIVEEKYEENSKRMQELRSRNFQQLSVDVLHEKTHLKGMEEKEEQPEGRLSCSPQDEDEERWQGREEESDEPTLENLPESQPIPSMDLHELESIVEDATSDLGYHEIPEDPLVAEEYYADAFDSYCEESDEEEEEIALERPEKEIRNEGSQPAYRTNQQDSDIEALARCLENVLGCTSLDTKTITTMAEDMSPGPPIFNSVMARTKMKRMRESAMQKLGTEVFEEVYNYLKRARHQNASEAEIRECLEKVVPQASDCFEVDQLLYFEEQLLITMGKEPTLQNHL
Excerpt: as §1

In assay [17] the target is CSNK1G1 (Homo sapiens, UniProt Q9HCP0).
Sequence of CSNK1G1 (Q9HCP0 whole entry): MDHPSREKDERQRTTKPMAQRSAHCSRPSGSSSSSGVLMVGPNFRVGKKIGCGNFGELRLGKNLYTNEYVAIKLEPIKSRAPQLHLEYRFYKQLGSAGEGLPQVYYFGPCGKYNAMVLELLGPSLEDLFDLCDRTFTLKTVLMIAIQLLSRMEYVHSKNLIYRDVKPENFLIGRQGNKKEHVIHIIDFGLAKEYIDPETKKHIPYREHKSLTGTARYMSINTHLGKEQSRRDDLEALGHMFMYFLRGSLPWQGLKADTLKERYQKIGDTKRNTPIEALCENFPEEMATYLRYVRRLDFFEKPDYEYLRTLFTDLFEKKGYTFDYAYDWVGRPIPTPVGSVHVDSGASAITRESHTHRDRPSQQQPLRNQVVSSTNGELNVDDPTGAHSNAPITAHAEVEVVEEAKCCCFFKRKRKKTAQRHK
Excerpt: as §1

Assay [18] concerns the target MARK2 (Homo sapiens, UniProt Q7KZI7).
Excerpt: as §1

Assay [19] deals with T4, PCTK2 (Homo sapiens, UniProt Q00537).
T4 construct: gene CDK17
Excerpt: as §1

In assay [20] the target is KIT(V559D,T670I) (Homo sapiens, UniProt P10721, T670I/V559D).
Excerpt: as §1

For assay [21], the target named is BRAF (Homo sapiens, UniProt P15056).
Excerpt: as §1

The target in assay [22] is MYO3A (Homo sapiens, UniProt Q8NEV4).
Excerpt: as §1

For assay [23], the target named is KIT(D816H) (Homo sapiens, UniProt P10721, D816H).
Sequence of KIT(D816H) (P10721 whole entry D816H): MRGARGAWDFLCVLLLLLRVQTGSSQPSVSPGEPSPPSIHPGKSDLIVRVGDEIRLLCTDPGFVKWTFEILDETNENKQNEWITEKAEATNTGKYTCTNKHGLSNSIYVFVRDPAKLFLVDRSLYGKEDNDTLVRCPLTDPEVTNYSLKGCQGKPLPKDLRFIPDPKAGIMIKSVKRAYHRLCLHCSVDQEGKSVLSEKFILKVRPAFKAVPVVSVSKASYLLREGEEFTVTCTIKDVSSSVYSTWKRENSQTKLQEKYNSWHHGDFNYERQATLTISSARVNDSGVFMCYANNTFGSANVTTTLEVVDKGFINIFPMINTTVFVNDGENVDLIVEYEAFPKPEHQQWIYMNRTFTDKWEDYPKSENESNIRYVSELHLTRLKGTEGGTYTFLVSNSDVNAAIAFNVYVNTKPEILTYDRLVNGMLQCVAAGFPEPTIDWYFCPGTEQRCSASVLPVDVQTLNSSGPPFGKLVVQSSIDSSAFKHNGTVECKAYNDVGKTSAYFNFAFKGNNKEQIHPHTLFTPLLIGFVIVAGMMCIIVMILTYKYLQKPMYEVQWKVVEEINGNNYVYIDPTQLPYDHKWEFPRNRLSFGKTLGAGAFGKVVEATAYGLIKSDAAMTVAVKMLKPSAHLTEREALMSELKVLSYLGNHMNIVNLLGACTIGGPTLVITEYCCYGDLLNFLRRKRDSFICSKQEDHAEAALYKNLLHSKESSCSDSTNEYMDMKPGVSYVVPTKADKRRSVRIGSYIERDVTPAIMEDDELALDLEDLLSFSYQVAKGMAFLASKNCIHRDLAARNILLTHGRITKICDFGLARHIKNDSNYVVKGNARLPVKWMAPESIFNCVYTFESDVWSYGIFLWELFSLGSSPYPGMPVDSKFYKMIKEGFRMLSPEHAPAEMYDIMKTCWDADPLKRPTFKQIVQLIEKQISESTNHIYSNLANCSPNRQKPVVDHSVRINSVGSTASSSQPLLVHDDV
Excerpt: as §1

Sequence of MARK2 (Q7KZI7 whole entry): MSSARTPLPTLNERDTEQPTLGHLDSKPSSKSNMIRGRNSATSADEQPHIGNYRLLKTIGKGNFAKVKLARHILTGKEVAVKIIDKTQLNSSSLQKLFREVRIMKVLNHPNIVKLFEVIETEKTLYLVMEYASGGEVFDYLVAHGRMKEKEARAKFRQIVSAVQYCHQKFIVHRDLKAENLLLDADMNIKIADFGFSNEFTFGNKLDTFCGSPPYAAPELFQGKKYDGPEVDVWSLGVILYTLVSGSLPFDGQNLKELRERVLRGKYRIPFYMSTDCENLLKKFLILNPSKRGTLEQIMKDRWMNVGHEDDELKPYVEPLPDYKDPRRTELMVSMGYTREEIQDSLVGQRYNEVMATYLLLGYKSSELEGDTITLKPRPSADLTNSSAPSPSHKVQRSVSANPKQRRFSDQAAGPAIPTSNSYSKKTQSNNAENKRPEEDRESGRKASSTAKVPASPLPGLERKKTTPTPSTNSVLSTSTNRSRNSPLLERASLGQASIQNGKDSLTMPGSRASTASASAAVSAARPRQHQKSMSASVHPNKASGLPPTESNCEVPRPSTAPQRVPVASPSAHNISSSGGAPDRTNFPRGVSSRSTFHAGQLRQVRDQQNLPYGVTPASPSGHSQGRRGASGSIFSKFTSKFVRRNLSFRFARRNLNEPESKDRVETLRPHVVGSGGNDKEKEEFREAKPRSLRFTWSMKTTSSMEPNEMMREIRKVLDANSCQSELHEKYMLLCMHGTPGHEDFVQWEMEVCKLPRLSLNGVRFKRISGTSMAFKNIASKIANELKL

`COc1ccc(-c2cnccc2-c2cnc(NC(=O)C(C)C)s2)c(C(F)(F)F)c1` [CRT0105446, N-{5-[3-(4-Methoxy-2-trifluoromethyl-phenyl)-pyridin-4-yl]-hiazol-2-yl}-isobutyramide]: the remaining binding at 10 µM in [1] is 100%; in assay [2], 80%; in [3], 100%; in assay [4] it was 100%; in [5], 88%; in [6], 99%. Also, the remaining binding at 10 µM in assay [7] worked out at 98%; in assay [8], 5.8%; in assay [9], 88%; in [10], 100%; in assay [11], 82%; in assay [12], 94%. In addition, the remaining binding at 10 µM worked out at 100% in assay [13]; 99% in [14]; 78% in assay [15]; 100% in assay [16]; 94% in assay [17]; 63% in assay [18]. Also, the remaining binding at 10 µM was 17% in [19]; 74% in [20]; 79% in assay [21]; 100% in assay [22]; 89% in [23].

Regarding `Cc1ccc(-c2cnccc2-c2cnc(Nc3ccc(O)cc3)s2)c(Cl)c1` [CRT0105950, 4-{5-[3-(2-Chloro-4-methyl-phenyl)-pyridin-4-yl]-thiazol-2-ylamino}-phenol], the remaining binding at 10 µM turned out to be 38% in assay [1]; 0.15% in [2]; 100% in assay [3]; 60% in assay [4]; 3.8% in assay [5]; 57% in assay [6]. Besides, the remaining binding at 10 µM in assay [7] amounted to 5%; in assay [8] it was 32%; in assay [9], 80%; in assay [10], 32%; in assay [11] it was 79%; in assay [12] it was 83%. Moreover, the remaining binding at 10 µM in assay [13] is 81%; in [14], 66%; in assay [15] it was 63%; in assay [16], 84%; in assay [17], 82%; in [18] it was 28%. The remaining binding at 10 µM in [19] came out at 52%; in [20] it was 36%; in assay [21], 93%; in assay [22] it was 65%; in assay [23] it was 46%.
